This is an account of results in patent US9199962B2, “Substituted azaheterocycles for the treatment of cancer” (Merck Patent GmbH, priority 2011, dated 2015).

Where two headings read alike, the source gives them in different places.

The assay concerns the target T1, GST-FAK (N-terminal GST fusion with truncated human FAK (376-1052 (end) amino acids)) (Homo sapiens, UniProt Q05397).
T1 construct: truncated human FAK (376-1052 (end) amino acids)
The assay can be described thus: Biochemical enzyme assay for FAK activity (Caliper LC3000 mobility shift). The conditions noted are these: 100 uM ATP, read-out: FAK IC50. How it is done: 1. Biochemical Enzyme Assays for FAK Activity
The FAK assays described here are performed on two Caliper Life Sciences systems, the LC3000 and the EZ Reader II. These provide data on enzyme activity via measurement of the relative amounts of phosphorylated or unphosphorylated fluorescently labelled substrate peptide at the end of an enzymatic reaction. These different states of peptide are resolved by applying a potential difference across the sample. The presence of the charged phosphate group on the product (as opposed to the substrate) causes different peptide mobility between the two peptides. This is visualized by excitation of the fluorescent label on the substrate and product peptides and represented as peaks within the analysis software.
In order to measure inhibitor activity of FAK, inhibitors in the Caliper Life Sciences LC3000, a TTP Mosquito liquid handling instrument is used to place 0.25 ul of the appropriate concentration of inhibitor in 100% DMSO (for a dose response curve calculation) into each well of a 384-well plate. To this reaction components are added to a final volume of 25 ul: • 0.067 ng/ul GST-FAK (N-terminal GST fusion with truncated human FAK (376-1052 (end) amino acids)) • 100 uM ATP • 1 mM DTT • 1 mM MgCl2 • 1 uM substrate peptide (sequence FITC-KGWMEDYDYVHLQGKK-(CONH2)SEQ ID NO: 1)) • 1 mM FERM peptide (sequence NH2-GATQSFIIR-COOH (SEQ ID NO: 2)) • 100 mM HEPES pH 7.5 • 0.015% Brij-35
The reaction is incubated for 90 min at 25 C, and then stopped by the addition of 70 ul of Stop buffer (100 mM HEPES pH 7.5, 0.015% Brij-35, 10 mM EDTA).
The plate is read on a Caliper LC 3000 in an Off-Chip mobility shift assay format, using the following parameters for a 12-sipper chip: screening pressure—1.9 psi, upstream voltage—3000, downstream voltage—700. These conditions cause unphosphorylated substrate and phosphorylated product peptide to resolve as separate peaks allowing direct measurement of percentage of conversion of substrate to product. The percent conversion can be plotted against concentration of inhibitor to produce a sigmoid dose response curve, from which an IC50 can be calculated using XLFit for Microsoft Excel.

T1 sequence (Q05397 376-1052): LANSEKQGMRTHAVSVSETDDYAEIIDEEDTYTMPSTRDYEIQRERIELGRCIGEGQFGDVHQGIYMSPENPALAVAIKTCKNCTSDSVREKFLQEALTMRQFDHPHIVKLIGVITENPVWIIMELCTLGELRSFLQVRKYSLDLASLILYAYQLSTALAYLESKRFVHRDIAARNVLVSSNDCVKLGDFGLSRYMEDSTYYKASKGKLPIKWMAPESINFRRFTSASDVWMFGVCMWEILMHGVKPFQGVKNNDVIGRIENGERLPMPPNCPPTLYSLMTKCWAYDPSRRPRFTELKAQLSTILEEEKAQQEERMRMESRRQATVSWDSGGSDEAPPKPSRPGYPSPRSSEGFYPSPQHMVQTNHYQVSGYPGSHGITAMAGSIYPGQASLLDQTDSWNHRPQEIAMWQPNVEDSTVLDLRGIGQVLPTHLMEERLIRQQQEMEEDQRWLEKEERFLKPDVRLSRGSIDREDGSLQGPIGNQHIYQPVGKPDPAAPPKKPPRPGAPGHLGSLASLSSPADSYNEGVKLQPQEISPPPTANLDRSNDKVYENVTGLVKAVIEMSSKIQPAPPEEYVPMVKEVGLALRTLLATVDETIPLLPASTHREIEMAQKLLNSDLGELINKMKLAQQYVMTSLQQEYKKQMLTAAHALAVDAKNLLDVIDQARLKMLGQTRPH

For the molecule `O=C(c1cncc(-c2nccc(NCc3cccc(-n4cccn4)c3)n2)c1)N1CCOCC1` [Compound 34, Morpholin-4-yl-{5-[4-(3-pyrazol-1-yl-benzylamino)-pyrimidin-2-yl]-pyridin-3-yl}-methanone], the IC50 (Table 1) is greater than 10000 nM.
Same read-out and setting: the result for `Fc1cc(Cl)ccc1CNc1ccnc(-c2cncc(C(F)(F)F)c2)n1` [Compound 35, (4-Chloro-2-fluoro-benzyl)-[2-(5-trifluoromethyl-pyridin-3-yl)-pyrimidin-4-yl]-amine] reads less than 100 nM; that for `Clc1cncc(-c2nccc(NCC3CC3)n2)c1` [Compound 36, [2-(5-Chloro-pyridin-3-yl)-pyrimidin-4-yl]-cyclopropylmethyl-amine], 1000 to 10000 nM.
As to `Clc1cncc(-c2nccc(NCC3CCCCC3)n2)c1` [Compound 37, [2-(5-Chloro-pyridin-3-yl)-pyrimidin-4-yl]-cyclohexylmethyl-amine], the 50% inhibitory concentration (IC50) (Table 1) was in the range of 1000 to 10000 nM.
For `Fc1ccccc1CNc1ccnc(-c2cncc(Cl)c2)n1` [Compound 38, [2-(5-Chloro-pyridin-3-yl)-pyrimidin-4-yl]-(2-fluoro-benzyl)-amine], the IC50 (Table 1) was less than 100 nM.
Take `Fc1ccc(CNc2ccnc(-c3cncc(Cl)c3)n2)cc1` [Compound 39, [2-(5-Chloro-pyridin-3-yl)-pyrimidin-4-yl]-(4-fluoro-benzyl)-amine]: the IC50 (Table 1) lay within 100 to 1000 nM.
The same measure, in the same setting: the result for `CC1(C)Cc2cccc(CNc3ccnc(-c4cncc(C(=O)N5CCOCC5)c4)n3)c2O1` [Compound 40, (5-{4-[(2,2-Dimethyl-2,3-dihydro-benzofuran-7-ylmethyl)-amino]-pyrimidin-2-yl}-pyridin-3-yl)-morpholin-4-yl-methanone] reads greater than 10000 nM.
For `NC(=O)CCNc1cc(NCc2ccc(F)cc2F)nc(-c2cncc(C(F)(F)F)c2)n1` [Compound 61, 3-[6-(2,4-Difluoro-benzylamino)-2-(5-trifluoromethyl-pyridin-3-yl)-pyrimidin-4-ylamino]-propionamide], where the note is “Table 2”, the IC50 lay in the range of 100 to 1000 nM.
Regarding `Fc1ccc(CNc2cc(NC3CCNCC3)nc(-c3cncc(C(F)(F)F)c3)n2)c(F)c1` [Compound 66, N-(2,4-Difluoro-benzyl)-N′-piperidin-4-yl-2-(5-trifluoromethyl-pyridin-3-yl)-pyrimidine-4,6-diamine], where the note is “Table 2”, the IC50 lay in the range of 100 to 1000 nM.
Still for that read-out and setting: the result for `OCC(Nc1ccnc(-c2cncc(C(F)(F)F)c2)n1)c1ccccc1` (stereo not drawn) [Compound 67, 2-Phenyl-2-[2-(5-trifluoromethyl-pyridin-3-yl)-pyrimidin-4-ylamino]-ethanol] reads 100 to 1000 nM; that for `CC(Nc1ccnc(-c2cncc(C(F)(F)F)c2)n1)c1ccc(F)cc1` (stereo not drawn) [Compound 68, [1-(4-Fluoro-phenyl)-ethyl]-[2-(5-trifluoromethyl-pyridin-3-yl)-pyrimidin-4-yl]-amine], 100 to 1000 nM.
For `CC(=O)NCCNC(=O)c1cc(NCc2ccc(F)cc2F)nc(-c2cncc(C(F)(F)F)c2)n1` [Compound 69, 6-(2,4-Difluoro-benzylamino)-2-(5-trifluoromethyl-pyridin-3-yl)-pyrimidine-4-carboxylic acid (2-acetylamino-ethyl)-amide], the IC50 (Table 2) is less than 100 nM.
Turning to `O=C(NCCc1cccnc1)c1cc(NCc2ccc(F)cc2F)nc(-c2cncc(C(F)(F)F)c2)n1` [Compound 70, 6-(2,4-Difluoro-benzylamino)-2-(5-trifluoromethyl-pyridin-3-yl)-pyrimidine-4-carboxylic acid (2-pyridin-3-yl-ethyl)-amide], the IC50 (Table 2) was less than 100 nM.
As for `O=C(NCCn1cccn1)c1cc(NCc2ccc(F)cc2F)nc(-c2cncc(C(F)(F)F)c2)n1` [Compound 71, 6-(2,4-Difluoro-benzylamino)-2-(5-trifluoromethyl-pyridin-3-yl)-pyrimidine-4-carboxylic acid (2-pyrazol-1-yl-ethyl)-amide], the half-inhibitory concentration (IC50) (Table 2) was less than 100 nM.
For the molecule `Cc1nc(CCNC(=O)c2cc(NCc3ccc(F)cc3F)nc(-c3cncc(C(F)(F)F)c3)n2)cs1` [Compound 73, 6-(2,4-Difluoro-benzylamino)-2-(5-trifluoromethyl-pyridin-3-yl)-pyrimidine-4-carboxylic acid [2-(2-methyl-thiazol-4-yl)-ethyl]-amide], for the setting “Table 2”, the IC50 lay in the range of 100 to 1000 nM.
The same measure, in the same setting: the result for `CCc1noc(CCNC(=O)c2cc(NCc3ccc(F)cc3F)nc(-c3cncc(C(F)(F)F)c3)n2)n1` [Compound 74, 6-(2,4-Difluoro-benzylamino)-2-(5-trifluoromethyl-pyridin-3-yl)-pyrimidine-4-carboxylic acid [2-(3-ethyl-[1,2,4]oxadiazol-5-yl)-ethyl]-amide] reads 100 to 1000 nM; that for `O=C(NCCN1CCNC1=O)c1cc(NCc2ccc(F)cc2F)nc(-c2cncc(C(F)(F)F)c2)n1` [Compound 75, 6-(2,4-Difluoro-benzylamino)-2-(5-trifluoromethyl-pyridin-3-yl)-pyrimidine-4-carboxylic acid [2-(2-oxo-imidazolidin-1-yl)-ethyl]-amide], 100 to 1000 nM.
On the same count and under the same terms, the result for `CNC(=O)[C@H](NC(=O)c1cc(NCc2ccc(F)cc2F)nc(-c2cncc(C(F)(F)F)c2)n1)C(C)C` [Compound 76, 6-(2,4-Difluoro-benzylamino)-2-(5-trifluoromethyl-pyridin-3-yl)-pyrimidine-4-carboxylic acid ((R)-2-methyl-1-methylcarbamoyl-propyl)-amide] reads 100 to 1000 nM.
Turning to `Nc1ncccc1-c1nccc(NCc2ccccc2F)n1` [Compound 78, 2-(2-Aminopyridin-3-yl)-N-(2-fluorobenzyl)pyrimidin-4-amine], under “Table 3”, the IC50 was in the range of 100 to 1000 nM.
On the same count and under the same terms, the same measure for `Nc1ncccc1-c1nccc(NCc2cccc(F)c2)n1` [Compound 79, 2-(2-Aminopyridin-3-yl)-N-(3-fluorobenzyl)pyrimidin-4-amine]: greater than 10000 nM; for `Nc1ncccc1-c1nccc(NCc2ccc(F)cc2)n1` [Compound 80, 2-(2-Aminopyridin-3-yl)-N-(4-fluorobenzyl)pyrimidin-4-amine]: 1000 to 10000 nM; for `Nc1ncccc1-c1nccc(NCc2ccccc2)n1` [Compound 81, 2-(2-Aminopyridin-3-yl)-N-benzylpyrimidin-4-amine]: 1000 to 10000 nM.
As for `Cc1ccccc1CNc1ccnc(-c2cccnc2N)n1` [Compound 82, 2-(2-Aminopyridin-3-yl)-N-(2-methylbenzyl)pyrimidin-4-amine], under “Table 3”, the IC50 fell in the range of 1000 to 10000 nM.
Turning to `COc1ccccc1CNc1ccnc(-c2cccnc2N)n1` [Compound 83, 2-(2-Aminopyridin-3-yl)-N-(2-methoxybenzyl)pyrimidin-4-amine], the IC50 (Table 3) lay within 1000 to 10000 nM.
The same measure, in the same setting: the result for `Nc1ncccc1-c1nccc(NCc2ccccc2OC(F)(F)F)n1` [Compound 84, 2-(2-Aminopyridin-3-yl)-N-[2-(trifluoromethoxy)benzyl]pyrimidin-4-amine] reads 1000 to 10000 nM; that for `Nc1ncccc1-c1nccc(NCc2cccc(F)c2F)n1` [Compound 85, 2-(2-Aminopyridin-3-yl)-N-(2,3-difluorobenzyl)pyrimidin-4-amine], 1000 to 10000 nM.
With `Nc1ncccc1-c1nccc(NCc2ccccc2Cl)n1` [Compound 86, 2-(2-Aminopyridin-3-yl)-N-(2-chlorobenzyl)pyrimidin-4-amine], where the note is “Table 3”, the IC50 fell in the range of 100 to 1000 nM.
Turning to `CS(=O)(=O)c1ccccc1CNc1ccnc(-c2cccnc2N)n1` [Compound 87, 2-(2-Aminopyridin-3-yl)-N-[2-(methylsulfonyl)benzyl]pyrimidin-4-amine], the IC50 (Table 3) fell in the range of 1000 to 10000 nM.
On the same count and under the same terms, the same measure for `CN(c1ncccc1CNc1ccnc(-c2cccnc2N)n1)S(C)(=O)=O` [Compound 88, N-[3-({[2-(2-Aminopyridin-3-yl)pyrimidin-4-yl]amino}methyl)pyridin-2-yl]-N-methylmethane-sulfonamide]: greater than 10000 nM.
`CS(=O)(=O)c1cccc(CNc2ccnc(-c3cccnc3N)n2)c1` [Compound 90, 2-(2-Aminopyridin-3-yl)-N-[3-(methylsulfonyl)benzyl]pyrimidin-4-amine]: the 50% inhibitory concentration (IC50) (Table 3) is 1000 to 10000 nM.
On the same count and under the same terms, the same measure for `CN(C)c1ccccc1CNc1ccnc(-c2cccnc2N)n1` [Compound 91, 2-(2-Aminopyridin-3-yl)-N-[2-(dimethylamino)benzyl]pyrimidin-4-amine]: 1000 to 10000 nM; for `Cc1ccc(CNc2ccnc(-c3cccnc3N)n2)cc1` [Compound 92, 2-(2-Aminopyridin-3-yl)-N-(4-methylbenzyl)pyrimidin-4-amine]: greater than 10000 nM; for `Fc1ccccc1CNc1ccnc(-c2cccnc2)n1` [Compound 93, N-(2-Fluorobenzyl)-2-pyridin-3-ylpyrimidin-4-amine]: 100 to 1000 nM.

Broadly, the IC50 is the concentration that inhibits the measured activity by half.
